Reference: patent publication US10011568B2, “Cyclohexyl pyridine derivative” (priority 2014, dated 2018)

What was measured:
[1] = Measurement of drug concentrations in the brain after foot-tapping; type: in vivo; settings: male gerbil, 0.1 mg/kg iv, after foot-tapping was finished
Protocol: (§1) A male gerbil (Japan SLC) was anesthetized with isoflurane, and 0.1 mg/kg of a test compound was administered from the jugular vein. After four hours. GR73632 (5 pmol/5 μl saline), which is an NK1 receptor agonist, was administered into the cerebral ventricle at the part 1 mm lateral to and 4.5 mm below the bregma in the head, under anesthesia with isoflurane. After the administration, the gerbil was moved to an observation cage, and the foot-tapping period during 30 minutes after the recovery of the righting reflex was measured. The foot-tapping inhibition rate (%) of each test compound was calculated by the following equation. Foot-tapping inhibition rate (%)−{1−(Fool-tapping period when test compound was administered)/(Foot-tapping period when solvent was administered)}×100 (2) Measurement of Drug Concentrations
After foot-tapping was finished, laparotomy was performed immediately under anesthesia with ether, and a blood sample was taken from the abdominal vena cava. At the same lime, the brain was extracted. Through a quantitative analysis using liquid chromatography-mass spectrometry (LC/MS), the concentrations of the test compound in the plasma and the brain were measured.
(§2) In the table, Ex. No. means the Example number. Inhibition (%) is the loot-tapping inhibition rate, and Cone. (nM) is the drug concentration in the brain.

human NK1 receptor = human NK1 receptor (Homo sapiens (Human), UniProt P25103); experiment: Affinity for human NK1 receptor (125I-substance P receptor binding test, membrane fraction); settings: membrane fraction of human NK1 receptor-expressing 293T cells; read-out: IC50 (nM), concentration required for 50% inhibition of 125I-substance P binding
Sequence of human NK1 receptor (P25103 whole entry): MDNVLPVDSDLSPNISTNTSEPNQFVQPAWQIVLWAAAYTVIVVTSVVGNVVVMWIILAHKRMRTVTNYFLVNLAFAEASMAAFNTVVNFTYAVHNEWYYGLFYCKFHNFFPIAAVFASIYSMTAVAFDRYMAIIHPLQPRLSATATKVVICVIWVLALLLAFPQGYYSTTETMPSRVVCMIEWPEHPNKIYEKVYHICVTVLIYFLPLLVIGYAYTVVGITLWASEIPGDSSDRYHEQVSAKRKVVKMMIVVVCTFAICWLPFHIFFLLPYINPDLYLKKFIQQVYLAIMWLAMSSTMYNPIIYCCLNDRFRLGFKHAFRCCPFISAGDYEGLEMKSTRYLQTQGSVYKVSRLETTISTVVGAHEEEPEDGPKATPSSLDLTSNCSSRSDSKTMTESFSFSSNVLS
Protocol: Affinity for Human NK1 Receptor
(3) Measurement of Binding Affinity to Human NK1 Receptor
(3-1) Preparation of Membrane Fraction from Human NK1 Receptor-Expressing Cells
Human NK1 receptor-expressing cells were prepared in a 175 cm^2 culture flask (Nippon Becton Dickinson). The formation of a complex of the human NK1 receptor expression plasmid and Lipofectamine 2000 was performed by calculating the culture area ratio and increasing the scale of the method described in the above 2-4 by the ratio. The human NK1 receptor-expressing cells were collected in a buffer solution for the membrane fraction preparation (50 mM Tris (Wako Pure Chemical), 120 mM sodium chloride (Wako Pure Chemical Industries), 5 mM potassium chloride (Wako Pure Chemical Industries), 1 mM ethylenediaminetetraacetic acid (Sigma), 0.002 mg/mL chymostatin (Peptide Institute), 0.04 mg/bacitracin (Wako Pure Chemical Industries), 0.005 mg/mL phosphoramidon (Peptide Institute) and 0.5 mM phenylmethylsulfonyl fluoride (Wako Pure Chemical Industries), pH7.4) and centrifuged at 1,880 g for 10 minutes, and the cell sediment was suspended in the buffer solution for the membrane fraction preparation. After freezing and thawing the cells once, the cells were homogenized using a Dounce-type homogenizer (cooled on ice, 1000 rpm, 20 times) The homogenized cell suspension was centrifuged at 20,000 rpm for 10 minutes, and the supernatant was removed to obtain cell sediment. The cell sediment was suspended again in the buffer solution for the membrane fraction preparation and homogenized using a Dounce-type homogenizer (cooled on ice, 1000 rpm, 30 times). The cell suspension was centrifuged at 20,000 rpm for 10 minutes, and the supernatant was removed to obtain cell sediment. The same homogenization and centrifugation were repeated again, and final cell sediment was obtained. The final cell sediment was suspended in a buffer solution for the receptor binding test (50 mM Tris (Wako Pure Chemical Industries). 3 mM manganese chloride (Wako Pure Chemical Industries), 0.002 mg/mL chymostatin (Peptide Institute), 0.04 mg/bacitracin (Wako Pure Chemical Industries) and 0.02% bovine serum albumin (Sigma), pH 7.4), and the protein concentration was measured using BCA Protein Assay Kit (Pierce).
(3-2) Receptor Binding Test
The buffer solution for the receptor binding test was dispensed to the wells of a 96-well assay plate (Greiner) at 22.5 μL/well. DMSO solutions of a test compound, which were prepared at an 80-time higher concentration using 100% dimethyl sulfoxide (DMSO), were added to the wells at 2.5 μL/well (final concentrations of 1 nM to 100 nM), and the solutions were mixed. As a radiolabeled ligand, ^125I-substance P (Substance P, [^125I]Tyr^8-, Perkin Elmer) was used. ^125I-substance P was diluted with the buffer solution for the receptor binding test to a concentration resulting in 125 pmol/25 μL/well and added to the 96-well assay plate, and the solutions were mixed. The membrane fraction prepared from the human NK1 receptor-expressing cells was diluted with the buffer solution for the receptor binding test to a concentration resulting in 8 to 10 μg/well, suspended until the suspension became in such a homogenous state that the suspension could flow through a 27G injection needle smoothly and then added to the 96-well assay plate at 150 μL/well. Then, the plate was incubated at room temperature for 60 minutes while shaking the plate. The reaction solutions were suction-filtered through a multiscreen 96-well filter plate (Millipore) which had been pre-treated with 0.3% polyethyleneimine, and the reaction was terminated by washing with a washing solution (50 mM Tris and 0.02% bovine serum albumin, pH 7.4) four times. The bottom of the microplate was dried at 60° C., and then 100 μL/well of MicroScint 20 (PerkinElmer) was dispensed to the wells. The top of the plate was sealed with TopSeal A (PerkinElmer), and the plate was shaken for 5 to 10 minutes. […]

human CYP3A4 = human CYP3A4 (Homo sapiens (Human), UniProt P08684); experiment: Inhibitory effect on CYP3A4; type: in vitro ADME; settings: 30-minute pre-incubation, Luciferin-IPA substrate; read-out: IC50 (μM), CYP3A4 inhibition
Sequence of human CYP3A4 (P08684 whole entry): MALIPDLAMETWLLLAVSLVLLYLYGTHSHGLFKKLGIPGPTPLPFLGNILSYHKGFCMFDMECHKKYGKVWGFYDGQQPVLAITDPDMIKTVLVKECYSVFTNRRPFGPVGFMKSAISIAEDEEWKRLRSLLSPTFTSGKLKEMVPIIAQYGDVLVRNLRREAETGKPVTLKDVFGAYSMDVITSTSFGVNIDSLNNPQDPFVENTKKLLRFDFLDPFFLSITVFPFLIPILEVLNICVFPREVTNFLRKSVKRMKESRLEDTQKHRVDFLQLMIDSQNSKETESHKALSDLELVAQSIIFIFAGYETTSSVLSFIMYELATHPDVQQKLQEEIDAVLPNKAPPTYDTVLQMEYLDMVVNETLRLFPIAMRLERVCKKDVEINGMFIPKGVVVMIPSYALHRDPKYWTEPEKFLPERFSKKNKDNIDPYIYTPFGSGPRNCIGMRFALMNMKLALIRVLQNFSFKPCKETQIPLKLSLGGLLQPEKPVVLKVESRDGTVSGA
Protocol: Inhibitory Effect on CYP3A4
Enzyme reaction was performed by incubating in a potassium phosphate buffer solution (pH 7.4) containing 1 nM to 20 μM test compound, 3.2 mM magnesium chloride, 0.2 pmol human CYP3A4 (BD Biosciences), 0.5 mM reduced nicotinamide adenine dinucleotide phosphate (NADPH) and 3 μM Luciferin-IPA (Promega) at 37° C. for 10 minutes. The volume of the reaction solution was 50 μL/well. The 30-minute pre-incubation group was incubated at 37° C. for 30 minutes before adding tire substrate, the Luciferin-IPA solution (12.5 μL/well). At the end of the enzyme reaction, 50 μL/well of a Luciferin detection reagent (Promega) was added to the wells, and the plate was left at room temperature for 20 minutes. Then, the emission intensities were measured with Infinite M1000 (TECAN). The enzyme activities (%) relative to the value of the group to which the test compound was not added were calculated.

NK1 receptor = NK1 receptor (Meriones unguiculatus (Mongolian jird) (Gerbillus unguiculatus), UniProt Q5DUB1); experiment: Effect on foot-tapping induced by NK1 receptor agonist GR73632; type: in vivo; settings: male gerbil, 0.1 mg/kg iv, GR73632 after four hours
Sequence of NK1 receptor (Q5DUB1 whole entry): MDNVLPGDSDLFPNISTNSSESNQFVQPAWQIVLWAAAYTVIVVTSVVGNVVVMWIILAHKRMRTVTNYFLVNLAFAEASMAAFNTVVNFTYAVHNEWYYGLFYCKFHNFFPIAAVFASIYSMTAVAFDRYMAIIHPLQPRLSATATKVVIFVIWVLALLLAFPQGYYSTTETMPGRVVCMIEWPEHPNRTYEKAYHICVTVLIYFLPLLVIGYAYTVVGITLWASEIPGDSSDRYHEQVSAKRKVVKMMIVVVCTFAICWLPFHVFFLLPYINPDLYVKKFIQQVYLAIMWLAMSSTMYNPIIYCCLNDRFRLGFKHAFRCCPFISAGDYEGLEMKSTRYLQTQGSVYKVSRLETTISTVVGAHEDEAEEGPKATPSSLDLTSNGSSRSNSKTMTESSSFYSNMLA
Protocol: (1) Effect on Foot-Tapping
The test compound solution was prepared by dissolving the test compound in a vehicle (a mixture of 50% N,N-dimethylacetamide (Wako Pure Chemical Industries), 30% propylene glycol (Wako Pure Chemical Industries). 4% 2-hydroxypropyl-β-cyclodextrin (Wako Pure Chemical Industries) and 16% distilled water).
as §1, §2

Row | Conc. (nM), drug concentration in the brain [1] | IC50 (human NK1 receptor) | IC50 (human CYP3A4) | Inhibition (%), foot-tapping inhibition rate (NK1 receptor) | Structure (SMILES)
1 | 47 nM | 2.35 nM | 6.9 µM | 75% | Cc1ccccc1-c1cc(C2CCC(CC(=O)O)CC2)ncc1N(C)C(=O)C(C)(C)c1cc(C(F)(F)F)cc(C(F)(F)F)c1 (centres unmarked) [Example 9, {4-[5-{[2-(3,5-Bistrifluoromethylphenyl)-2-methylpropionyl]methylamino}-4-ortho-tolylpyridine-yl]-cyclohexyl}acetic Acid]
2 | 40 nM | 2.21 nM | 7.5 µM | 99% | Cc1cc(F)ccc1-c1cc([C@H]2CC[C@@H](CC(=O)O)CC2)ncc1N(C)C(=O)C(C)(C)c1cc(C(F)(F)F)cc(C(F)(F)F)c1 [Example 14, cis-{4-[5-{[2-(3,5-bistrifluoromethylphenyl)-2-methylpropionyl]methylamino}-4-(4-fluoro-2-methylphenyl)pyridin-2-yl]cyclohexyl}acetic acid]
